The record followed here is patent US7390896B2, “Cyclic malonamides as inhibitors of Aβ protein production” (Bristol-Myers Squibb Pharma Corporation, priority 2000, dated 2008).

The melting point is the temperature, or range, at which the solid turns liquid. `CN1C(=O)[C@@H](NC(=O)C2(NC(=O)Cc3cc(F)cc(F)c3)CC2)N=C(c2ccccc2)c2ccccc21` displayed a melting point of 212 to 214 °C.

In the case of `CCCCC1=NC(NC(=O)C2(NC(=O)CCC(C)C)CCCC2)C(=O)N(Cc2ccccn2)c2ccccc21` (stereo not shown) [Example 63, N-({N-[5-Butyl-2-oxo-1-(2-pyridylmethyl)(3H-benzo[f]1,4-diazepin-3-yl)]carbamoyl}cyclopentyl)-4-methylpentanamide], the melting point lay within 63 to 67 °C.

`CN1C(=O)[C@@H](NC(=O)C2(NC(=O)Cc3cc(F)cc(F)c3)CCCC2)N=C(c2ccccc2)c2ccccc21` displayed a melting point of 112 to 117 °C.

The compound `CN1C(=O)[C@@H](NC(=O)C2(NC(=O)CCC3CCCC3)CCCCC2)N=C(c2ccccc2)c2ccccc21` gave a melting point of 88 to 103 °C.

The compound `CCCCN1C(=O)C(NC(=O)C2(NC(=O)CCC(C)C)CCCC2)N=C(C(C)(C)C)c2ccccc21` (stereo not shown) [Example 62, N-({N-[5-(tert-Butyl)-1-butyl-2-oxo(3H-benzo[f]1,4-diazepin-3-yl)]carbamoyl}cyclopentyl)-4-methylpentanamide] registered a melting point of 175 to 177 °C.

For `CN1C(=O)[C@@H](NC(=O)C2(NC(=O)Cc3cc(F)cc(F)c3)CCCCC2)N=C(c2ccccc2)c2ccccc21`, the melting point lay in the range of 126 to 129 °C.

In turn, `CC(C)CCC(=O)NC1(C(=O)NC2N=C(C(C)(C)C)c3ccccc3N(C)C2=O)CCCC1` (stereo not shown) [Example 61, N-((N-[5-(tert-Butyl)-1-methyl-2-oxo(3H-benzo[f]1,4-diazepin-3-yl)]carbamoyl)cyclopentyl)-4-methylpentanamide] gave a melting point of 175 to 178 °C.
